This is an account of results in ChEMBL document CHEMBL1125487, “Acetazolamide-like carbonic anhydrase inhibitors with topical ocular hypotensive activity” (J Med Chem, 1992).

The species named for data set [1] is Oryctolagus cuniculus. As to the kind of experiment: Effect on intraocular pressure in right eye was tested by using transition ocular hypertension model at 20 min. Format: functional.
For data set [2], the species on record is Oryctolagus cuniculus. The experiment in a line: Effect on intraocular pressure in left eye was tested by using transition ocular hypertension model at basal condition. Format: functional.
The species named for data set [3] is Oryctolagus cuniculus. As to the kind of experiment: Effect on intraocular pressure in right eye was tested by using transition ocular hypertension model at 10 min. Format: functional.
The species entered for data set [4] is Oryctolagus cuniculus. As to the kind of experiment: Effect on intraocular pressure in right eye was tested by using transition ocular hypertension model at 0 min. Format: functional.
A further data set can be described thus: physchem. The settings on record: phosphate buffer.
For the next data set, the target named is Carbonic anhydrase. Format: protein assay.
The species named for data set [5] is Oryctolagus cuniculus. The experiment in a line: Effect on intraocular pressure in right eye was tested by using transition ocular hypertension model at 40 min. Format: functional.
The species named for data set [6] is Oryctolagus cuniculus. As to the kind of experiment: Effect on intraocular pressure in left eye was tested by using transition ocular hypertension model at 10 min. The format is functional.
The species named for data set [7] is Oryctolagus cuniculus. As to the kind of experiment: Effect on intraocular pressure in left eye was tested by using transition ocular hypertension model at 40 min. The format is functional.
Data set [8] is filed under the species Oryctolagus cuniculus. As to the kind of experiment: Effect on intraocular pressure in right eye was tested by using transition ocular hypertension model at basal condition. The format is functional.
The species entered for data set [9] is Oryctolagus cuniculus. As to the kind of experiment: Effect on intraocular pressure in left eye was tested by using transition ocular hypertension model at 0 min. Format: functional.
Data set [10] is filed under the species Oryctolagus cuniculus. The experiment in a line: Effect on intraocular pressure in left eye was tested by using transition ocular hypertension model at 20 min. The format is functional.
The conditions of data set [11]: buffer.
Description: Solubility (in phosphate buffer)

Values after ≈ are worked out from the molar mass of the structure shown. Values joined by “and” are separate entries in the source; they are usually repeats but may differ in a detail not shown here. Equal entries are not always repeated.

Description for Carbonic anhydrase: Inhibition of Carbonic anhydrase enzyme in rabbits
Description for physchem: Solubility (in phosphate buffer)

Broadly, the solubility is the dissolved amount per volume that the medium holds. Low values mean a poorly soluble substance, high ones a readily soluble substance. Usually IC50 stands for the concentration needed to halve the response being measured. A low value points to higher potency. Take `NS(=O)(=O)c1nnc(NC(=O)CCCCCCCC(=O)O)s1`: the IOP in the data set listed under Oryctolagus cuniculus [1] worked out at 19.5 mmHg; in the data set listed under Oryctolagus cuniculus [2], 16 mmHg; in the data set filed under Oryctolagus cuniculus [3] it was 25.17 mmHg; in the data set listed under Oryctolagus cuniculus [4], 16.17 mmHg; in the data set filed under Oryctolagus cuniculus [5], 17 mmHg; in the data set filed under Oryctolagus cuniculus [6], 26.5 mmHg. Further, the IOP in the data set listed under Oryctolagus cuniculus [7] was determined as 17.5 mmHg; in the data set listed under Oryctolagus cuniculus [8], 15.83 mmHg; in the data set filed under Oryctolagus cuniculus [9], 16 mmHg; in the data set filed under Oryctolagus cuniculus [10], 20.67 mmHg. The compound further came in with a solubility in “physchem” of 21.6 mM (≈ 7570 µg/mL). Further, the IC50 against Carbonic anhydrase amounted to 0.48 µM.
Take `COC(=O)CCCCC(=O)Nc1nnc(S(N)(=O)=O)s1`: in “physchem”, the solubility is less than 1 mM. The compound further yielded an IC50 against Carbonic anhydrase of 0.23 µM.
The matching figures for `COC(=O)CCCCCCCC(=O)Nc1nnc(S(N)(=O)=O)s1`: less than 1 mM and 0.91 µM.
Take `COC(=O)CC(=O)Nc1nnc(S(N)(=O)=O)s1`: the IOP in the data set listed under Oryctolagus cuniculus [1] is 19.67 mmHg; in the data set filed under Oryctolagus cuniculus [2], 16.33 mmHg; in the data set listed under Oryctolagus cuniculus [3], 23.17 mmHg; in the data set listed under Oryctolagus cuniculus [4], 15.87 mmHg; in the data set filed under Oryctolagus cuniculus [5] it was 17 mmHg; in the data set filed under Oryctolagus cuniculus [6] it was 27.17 mmHg. Also, the IOP in the data set listed under Oryctolagus cuniculus [7] is on record as 19.17 mmHg; in the data set listed under Oryctolagus cuniculus [8], 16.17 mmHg; in the data set listed under Oryctolagus cuniculus [9], 16.17 mmHg; in the data set listed under Oryctolagus cuniculus [10], 22.5 mmHg. In addition, the solubility in “physchem” amounted to 16 mM (≈ 4480 µg/mL). On Carbonic anhydrase, the IC50 is 0.94 µM.
In the case of `CCC(C)OC(=O)CCC(=O)Nc1nnc(S(N)(=O)=O)s1` (stereo unspecified), the IOP in the data set listed under Oryctolagus cuniculus [1] turned out to be 19 mmHg; in the data set listed under Oryctolagus cuniculus [2], 15.33 mmHg; in the data set filed under Oryctolagus cuniculus [3], 21.5 mmHg; in the data set filed under Oryctolagus cuniculus [4], 14.67 mmHg; in the data set filed under Oryctolagus cuniculus [5], 16.67 mmHg; in the data set listed under Oryctolagus cuniculus [6], 25.67 mmHg. Further, the IOP in the data set listed under Oryctolagus cuniculus [7] turned out to be 17.17 mmHg; in the data set listed under Oryctolagus cuniculus [8], 15.67 mmHg; in the data set listed under Oryctolagus cuniculus [9], 15.5 mmHg; in the data set listed under Oryctolagus cuniculus [10] it was 21.17 mmHg. In the data set “physchem”, this compound gave a solubility of 3.7 mM (≈ 1240 µg/mL). Also, the 50% inhibitory concentration (IC50) at Carbonic anhydrase was determined as 0.37 µM.
Regarding `CCCCCOC(=O)CCC(=O)/N=c1/sc(S(N)(=O)=O)nn1C`, the IOP in the data set listed under Oryctolagus cuniculus [1] was 25.17 mmHg; in the data set listed under Oryctolagus cuniculus [2], 15.83 mmHg; in the data set listed under Oryctolagus cuniculus [3] it was 20.67 mmHg; in the data set filed under Oryctolagus cuniculus [4] it was 15.5 mmHg; in the data set listed under Oryctolagus cuniculus [5], 22 mmHg; in the data set listed under Oryctolagus cuniculus [6] it was 24 mmHg. Moreover, the IOP in the data set listed under Oryctolagus cuniculus [7] was 17.83 mmHg; in the data set listed under Oryctolagus cuniculus [8] it was 15.67 mmHg; in the data set filed under Oryctolagus cuniculus [9], 15.33 mmHg; in the data set listed under Oryctolagus cuniculus [10], 20.67 mmHg. This compound also had a solubility in “physchem” of 1.4 mM (≈ 510 µg/mL). The IC50 against Carbonic anhydrase amounted to 0.31 µM.
On to `COC(=O)CCCC(=O)Nc1nnc(S(N)(=O)=O)s1`, for which the solubility in the data set “physchem” turned out to be 11.5 mM (≈ 3550 µg/mL). Also, the IC50 against Carbonic anhydrase stood at 0.91 µM.
Regarding `CCCCCOC(=O)CCC(=O)Nc1nnc(S(N)(=O)=O)s1`, the IOP in the data set filed under Oryctolagus cuniculus [1] is 20 mmHg; in the data set listed under Oryctolagus cuniculus [2], 15.67 mmHg; in the data set filed under Oryctolagus cuniculus [3], 22.67 mmHg; in the data set filed under Oryctolagus cuniculus [4], 15 mmHg; in the data set listed under Oryctolagus cuniculus [5] it was 17.83 mmHg; in the data set listed under Oryctolagus cuniculus [6], 24.5 mmHg. For the same compound, the IOP in the data set filed under Oryctolagus cuniculus [7] is recorded as 18.83 mmHg; in the data set listed under Oryctolagus cuniculus [8], 15.83 mmHg; in the data set listed under Oryctolagus cuniculus [9] it was 15.67 mmHg; in the data set listed under Oryctolagus cuniculus [10] it was 21.33 mmHg. This compound registered a solubility in “physchem” of 1.3 mM (≈ 456 µg/mL). This compound displayed an IC50 at Carbonic anhydrase of 0.39 µM.
Turning to `NS(=O)(=O)c1nnc(NC(=O)CCCCC(=O)O)s1`, the IOP in the data set listed under Oryctolagus cuniculus [1] worked out at 20 mmHg; in the data set filed under Oryctolagus cuniculus [2], 16.33 mmHg; in the data set listed under Oryctolagus cuniculus [4], 16.33 mmHg; in the data set filed under Oryctolagus cuniculus [5], 17.17 mmHg; in the data set listed under Oryctolagus cuniculus [6], 25.17 mmHg; in the data set filed under Oryctolagus cuniculus [7] it was 18 mmHg. Moreover, the IOP is 16.83 mmHg in the data set filed under Oryctolagus cuniculus [8]; 16.17 mmHg and 22 mmHg in the data set filed under Oryctolagus cuniculus [9]; 21.67 mmHg in the data set listed under Oryctolagus cuniculus [10]. For the same compound, in the data set “physchem”, the solubility amounted to 25 mM (≈ 7710 µg/mL).
Consider `CCOC(=O)CCC(=O)Nc1nnc(S(N)(=O)=O)s1`, for which the IOP in the data set listed under Oryctolagus cuniculus [1] is listed as 17.33 mmHg; in the data set filed under Oryctolagus cuniculus [2] it was 15.33 mmHg; in the data set filed under Oryctolagus cuniculus [3], 20.33 mmHg; in the data set listed under Oryctolagus cuniculus [4], 13.33 mmHg; in the data set listed under Oryctolagus cuniculus [5] it was 15.67 mmHg; in the data set listed under Oryctolagus cuniculus [6], 25.67 mmHg. Also, the IOP in the data set listed under Oryctolagus cuniculus [7] was determined as 17.67 mmHg; in the data set filed under Oryctolagus cuniculus [8], 15.33 mmHg; in the data set listed under Oryctolagus cuniculus [9] it was 15.5 mmHg; in the data set filed under Oryctolagus cuniculus [10], 20.67 mmHg. Further, the solubility in “physchem” came out at 8.9 mM (≈ 2740 µg/mL).
Turning to `NCCCCC(=O)Nc1nnc(S(N)(=O)=O)s1`, the IOP is reported as 20.83 mmHg in the data set listed under Oryctolagus cuniculus [1]; 15.5 mmHg in the data set filed under Oryctolagus cuniculus [2]; 24 mmHg in the data set listed under Oryctolagus cuniculus [3]; 15 mmHg in the data set listed under Oryctolagus cuniculus [4]; 16.83 mmHg in the data set listed under Oryctolagus cuniculus [5]; 26.17 mmHg in the data set listed under Oryctolagus cuniculus [6]. Besides, the IOP in the data set listed under Oryctolagus cuniculus [7] is 17.33 mmHg; in the data set filed under Oryctolagus cuniculus [8] it was 15.83 mmHg; in the data set filed under Oryctolagus cuniculus [9], 15.83 mmHg; in the data set listed under Oryctolagus cuniculus [10], 21.5 mmHg. At Carbonic anhydrase, this compound gave an IC50 of 0.44 µM. This compound also had a S in data set [11] of 8.8 mM.
For the compound `COC(=O)CCC(=O)/N=c1/sc(S(N)(=O)=O)nn1C`, the IOP amounted to 20.83 mmHg in the data set filed under Oryctolagus cuniculus [1]; 15.33 mmHg in the data set filed under Oryctolagus cuniculus [2]; 24.67 mmHg in the data set filed under Oryctolagus cuniculus [3]; 14.83 mmHg in the data set filed under Oryctolagus cuniculus [4]; 17.33 mmHg in the data set listed under Oryctolagus cuniculus [5]; 25.83 mmHg in the data set filed under Oryctolagus cuniculus [6]. The IOP in the data set filed under Oryctolagus cuniculus [7] came to 17.83 mmHg; in the data set listed under Oryctolagus cuniculus [8], 15.5 mmHg; in the data set listed under Oryctolagus cuniculus [9], 16 mmHg; in the data set listed under Oryctolagus cuniculus [10] it was 21.5 mmHg. Moreover, in the data set “physchem”, the solubility was 7.3 mM (≈ 2250 µg/mL). On Carbonic anhydrase, this compound displayed an IC50 of 0.45 µM.
For the compound `NS(=O)(=O)c1nnc(NC(=O)CCCC(=O)O)s1`, the IOP in the data set filed under Oryctolagus cuniculus [1] is recorded as 19 mmHg; in the data set filed under Oryctolagus cuniculus [2], 15.5 mmHg; in the data set filed under Oryctolagus cuniculus [3], 21.17 mmHg; in the data set filed under Oryctolagus cuniculus [4] it was 14.67 mmHg; in the data set listed under Oryctolagus cuniculus [5] it was 16.5 mmHg; in the data set filed under Oryctolagus cuniculus [6], 25.5 mmHg. The IOP is reported as 17.83 mmHg in the data set listed under Oryctolagus cuniculus [7], 15.5 mmHg in the data set filed under Oryctolagus cuniculus [8], 15.33 mmHg in the data set filed under Oryctolagus cuniculus [9] and 22 mmHg in the data set filed under Oryctolagus cuniculus [10]. Further, the solubility in the data set “physchem” came to 31 mM (≈ 9120 µg/mL). On Carbonic anhydrase, this compound had a 50% inhibitory concentration (IC50) of 0.52 µM.
On to `CCCCCCCCCCCCOC(=O)CCC(=O)Nc1nnc(S(N)(=O)=O)s1`, for which the IC50 against Carbonic anhydrase is 0.52 µM.
As to `COC(=O)CCC(=O)Nc1nnc(S(N)(=O)=O)s1`, the IOP in the data set filed under Oryctolagus cuniculus [1] was 19.5 mmHg; in the data set filed under Oryctolagus cuniculus [2], 15.83 mmHg; in the data set filed under Oryctolagus cuniculus [3] it was 25.33 mmHg; in the data set filed under Oryctolagus cuniculus [4], 15.17 mmHg; in the data set filed under Oryctolagus cuniculus [5] it was 16.5 mmHg; in the data set listed under Oryctolagus cuniculus [6], 25.5 mmHg. In addition, the IOP amounted to 16.67 mmHg in the data set filed under Oryctolagus cuniculus [7], 15.67 mmHg in the data set filed under Oryctolagus cuniculus [8], 16.17 mmHg in the data set filed under Oryctolagus cuniculus [9] and 20.17 mmHg in the data set listed under Oryctolagus cuniculus [10]. In the data set “physchem”, this compound showed a solubility of 3.2 mM (≈ 942 µg/mL). The IC50 on Carbonic anhydrase is 0.55 µM.
For `CC(C)(C)NC[C@H](O)COc1nsnc1N1CCOCC1` [TIMOLOL], the IOP was determined as 19.38 mmHg in the data set filed under Oryctolagus cuniculus [1]; 18.53 mmHg in the data set filed under Oryctolagus cuniculus [2]; 18.57 mmHg in the data set filed under Oryctolagus cuniculus [3]; 15.77 mmHg in the data set listed under Oryctolagus cuniculus [4]; 18.77 mmHg in the data set listed under Oryctolagus cuniculus [5]; 25.84 mmHg in the data set filed under Oryctolagus cuniculus [6]. Also, the IOP in the data set filed under Oryctolagus cuniculus [7] is reported as 18.77 mmHg; in the data set filed under Oryctolagus cuniculus [8], 18.53 mmHg; in the data set filed under Oryctolagus cuniculus [9], 16.84 mmHg; in the data set filed under Oryctolagus cuniculus [10], 21.97 mmHg.
